The assay has as its system primary osteoblasts. As to the kind of experiment: Alkaline phosphatase (ALP) activity of osteoblasts. The assay is classed as cell-based, Wistar rats. The note with it: day 15 of treatment; 10^-9 M 1,25(OH)2D3, 1 μM OLP, 1 μM HTy; vs negative control (C-); FIGS. 3 to 6. The protocol:
Primary osteoblasts were isolated from the calvaria of newborn Wistar rats by enzymatic digestion as described by Declercq et al. in 2004. During all experiments, cells were maintained in α-minimal essential medium with 10% heat-inactivated fetal bovine serum and 1% penicillin/streptomycin under conditions of 5% CO2 and 37° C. Cells were seeded on Coll-1-coated 96-well plates at a density of 3500 cells/well or in 24-well plates at a density of 3×10^4 cells/well and cultured for 2 days in o-MEM to reach confluence. Cells were then exposed to different conditions: minimal medium (C−), minimal medium containing 50 μg/ml ascorbic acid, 5 mM ß-glycerophosphate (C+; optimized medium), and minimal medium supplemented with 1 μM Oleuropein ([…]) or/and 10^−9 M 1,25 dihydroxyvitamin D3 (1,25(OH)2D3). OLP and HTy were dissolved in dimethylsulfoxide (DMSO) and 1,25(OH)2D3 was dissolved in ethanol. The final concentrations of DMSO and ethanol in the medium were 0.1% each. The medium was changed every 2 days.
Enzymatic activity of Alkaline Phosphatase (ALP) was measured kinetically on Treatment Days 0, 5, 9, 12 and 15. Osteoblasts were rinsed twice with PBS before being frozen on dry ice. […] Absorbance was measured at 405 nm and 30° C., and every 2 min 30 s for 30 min using a VarioSklan Flash microplate reader. ALP activity was expressed as micromoles of p-NPP per hour per milligram of protein. […]

With `C=C1/C(=C\C=C2/CCC[C@]3(C)[C@@H]([C@H](C)CCCC(C)(C)O)CC[C@@H]23)C[C@@H](O)C[C@@H]1O` [Vitamin D3, 1,25 dihydroxyvitamin D3], the “AP (ALP) activity / osteoblast activity” value is on record as “small but statistically significant increase”.

The values above are taken from US11166965B2, “Compositions for use in stimulating bone growth” (Société des Produits Nestlé S.A., priority 2013, dated 2021).
